According to ChEMBL document CHEMBL4665836, “Overcoming β-Lactam resistance in Pseudomonas aeruginosa using non-canonical tobramycin-based antibiotic adjuvants” (2020):

Columns and labels:
Type in all cases: functional
Pseudomonas aeruginosa [1] = test: Potentiation of imipenem-induced antibacterial activity against carbapenem-resistant Pseudomonas aeruginosa 107092 clinical isolate assessed as fold reduction in imipenem MIC at 8 uM in presence of beta-lactamase inhibitor, rele-bactam
Pseudomonas aeruginosa [2] = test: Potentiation of imipenem-induced antibacterial activity against carbapenem-resistant Pseudomonas aeruginosa 109084 clinical isolate assessed as fold reduction in imipenem MIC at 8 uM in presence of beta-lactamase inhibitor, rele-bactam
Pseudomonas aeruginosa [3] = test: Potentiation of aztreonam-induced antibacterial activity against carbapenem-resistant Pseudomonas aeruginosa 86052 clinical isolate assessed as fold reduction in aztreonam MIC at 8 uM in presence of beta-lactamase inhibitor, avi-bactam
Pseudomonas aeruginosa [4] = test: Potentiation of ceftazidime-induced antibacterial activity against carbapenem-resistant Pseudomonas aeruginosa 86052 clinical isolate assessed as fold reduction in ceftazidime MIC at 8 uM in presence of beta-lactamase inhibitor, avi-bactam
Pseudomonas aeruginosa [5] = test: Potentiation of ceftazidime-induced antibacterial activity against carbapenem-resistant Pseudomonas aeruginosa 88949 clinical isolate assessed as fold reduction in ceftazidime MIC at 8 uM in presence of beta-lactamase inhibitor, avi-bactam
Pseudomonas aeruginosa [6] = test: Potentiation of ceftazidime-induced antibacterial activity against carbapenem-resistant Pseudomonas aeruginosa 109084 clinical isolate assessed as fold reduction in ceftazidime MIC at 8 uM in presence of beta-lactamase inhibitor, avi-bactam
Pseudomonas aeruginosa [7] = test: Potentiation of imipenem-induced antibacterial activity against carbapenem-resistant Pseudomonas aeruginosa PAO200 harboring mexAB-oprM efflux deficient mutant assessed as imipenem MIC at 8 uM by checkerboard assay (reference value: 4 ug/ml)
Pseudomonas aeruginosa [8] = test: Potentiation of imipenem-induced antibacterial activity against carbapenem and colistin-resistant Pseudomonas aeruginosa 101243 clinical isolate assessed as imipenem MIC at 8 uM by checkerboard assay (reference value: 8 ug/ml)
Pseudomonas aeruginosa [9] = test: Potentiation of imipenem-induced antibacterial activity against carbapenem-resistant Pseudomonas aeruginosa 101885 clinical isolate assessed as imipenem MIC at 8 uM by checkerboard assay (reference value: 4 ug/ml)
Pseudomonas aeruginosa [10] = test: Potentiation of imipenem-induced antibacterial activity against carbapenem-resistant Pseudomonas aeruginosa 86052 clinical isolate assessed as imipenem MIC at 8 uM by checkerboard assay (reference value: 32 ug/ml)
Pseudomonas aeruginosa [11] = test: Potentiation of imipenem-induced antibacterial activity against carbapenem-resistant Pseudomonas aeruginosa 259-96918 clinical isolate expressing MBL assessed as imipenem MIC at 8 uM by checkerboard assay (reference value: 64 ug/ml)
Pseudomonas aeruginosa [12] = test: Potentiation of ceftazidime-induced antibacterial activity against carbapenem-resistant Pseudomonas aeruginosa PAO750 harboring and mexAB-oprM/mexCD-oprJ/mexEF-oprN/mexJK/mexXY/opmH efflux deficient mutant assessed as ceftazidime MIC at 8 uM by checkerboard assay (reference value: 0.5 ug/ml)
Pseudomonas aeruginosa [13] = test: Potentiation of ceftazidime-induced antibacterial activity against carbapenem-resistant Pseudomonas aeruginosa PAO200 harboring mexAB-oprM efflux deficient mutant assessed as ceftazidime MIC at 8 uM by checkerboard assay (reference value: 1 ug/ml)
Pseudomonas aeruginosa [14] = test: Potentiation of ceftazidime-induced antibacterial activity against carbapenem-resistant Pseudomonas aeruginosa 108590 clinical isolate assessed as ceftazidime MIC at 8 uM by checkerboard assay (reference value: 32 ug/ml)
Pseudomonas aeruginosa [15] = test: Potentiation of ceftazidime-induced antibacterial activity against carbapenem-resistant Pseudomonas aeruginosa 107092 clinical isolate assessed as ceftazidime MIC at 8 uM by checkerboard assay (reference value: 128 ug/ml)
Pseudomonas aeruginosa [16] = test: Potentiation of ceftazidime-induced antibacterial activity against carbapenem-resistant Pseudomonas aeruginosa 88949 clinical isolate assessed as ceftazidime MIC at 8 uM by checkerboard assay (reference value: 64 ug/ml)
Pseudomonas aeruginosa [17] = test: Potentiation of ceftazidime-induced antibacterial activity against carbapenem-resistant Pseudomonas aeruginosa 86052 clinical isolate assessed as ceftazidime MIC at 8 uM by checkerboard assay (reference value: 64 ug/ml)
Pseudomonas aeruginosa [18] = test: Potentiation of ceftazidime-induced antibacterial activity against carbapenem-resistant Pseudomonas aeruginosa 101885 clinical isolate assessed as ceftazidime MIC at 8 uM by checkerboard assay (reference value: 8 ug/ml)
Pseudomonas aeruginosa [19] = test: Potentiation of ceftazidime-induced antibacterial activity against carbapenem-resistant Pseudomonas aeruginosa 100036 clinical isolate assessed as ceftazidime MIC at 8 uM by checkerboard assay (reference value: 8 ug/ml)
Pseudomonas aeruginosa [20] = test: Potentiation of ceftazidime-induced antibacterial activity against carbapenem-resistant Pseudomonas aeruginosa 260-97103 clinical isolate assessed as ceftazidime MIC at 8 uM by checkerboard assay (reference value: 32 ug/ml)
Pseudomonas aeruginosa [21] = test: Potentiation of ceftazidime-induced antibacterial activity against wild type Pseudomonas aeruginosa PAO1 assessed as ceftazidime MIC at 8 uM by checkerboard assay (reference value: 2 ug/ml)
Pseudomonas aeruginosa [22] = test: Potentiation of aztreonam-induced antibacterial activity against carbapenem-resistant Pseudomonas aeruginosa 107092 clinical isolate assessed as aztreonam MIC at 8 uM by checkerboard assay (reference value: 64 ug/ml)
Pseudomonas aeruginosa [23] = test: Potentiation of aztreonam-induced antibacterial activity against carbapenem-resistant Pseudomonas aeruginosa 88949 clinical isolate assessed as aztreonam MIC at 8 uM by checkerboard assay (reference value: 32 ug/ml)
Pseudomonas aeruginosa [24] = test: Potentiation of aztreonam-induced antibacterial activity against carbapenem and colistin-resistant Pseudomonas aeruginosa 101243 clinical isolate assessed as aztreonam MIC at 8 uM by checkerboard assay (reference value: 32 ug/ml)
Pseudomonas aeruginosa [25] = test: Potentiation of aztreonam-induced antibacterial activity against carbapenem-resistant Pseudomonas aeruginosa 100036 clinical isolate assessed as aztreonam MIC at 8 uM by checkerboard assay (reference value: 16 ug/ml)
Pseudomonas aeruginosa [26] = test: Potentiation of aztreonam-induced antibacterial activity against carbapenem and colistin-resistant Pseudomonas aeruginosa 91433 clinical isolate assessed as aztreonam MIC at 8 uM by checkerboard assay (reference value: 16 ug/ml)
Pseudomonas aeruginosa [27] = test: Potentiation of aztreonam-induced antibacterial activity against carbapenem-resistant Pseudomonas aeruginosa 262-101856 clinical isolate assessed as aztreonam MIC at 8 uM by checkerboard assay (reference value: 32 ug/ml)
Pseudomonas aeruginosa [28] = test: Potentiation of aztreonam-induced antibacterial activity against carbapenem-resistant Pseudomonas aeruginosa 260-97103 clinical isolate assessed as aztreonam MIC at 8 uM by checkerboard assay (reference value: 64 ug/ml)
Pseudomonas aeruginosa [29] = test: Potentiation of aztreonam-induced antibacterial activity against wild type Pseudomonas aeruginosa PAO1 assessed as aztreonam MIC at 8 uM by checkerboard assay (reference value: 4 ug/ml)
Pseudomonas aeruginosa [30] = test: Potentiation of ceftazidime-induced antibacterial activity against carbapenem-resistant Pseudomonas aeruginosa 259-96918 clinical isolate expressing metallo-beta-lactamase assessed as ceftazidime MIC at 8 uM by checkerboard assay (reference value: 512 ug/ml)
Pseudomonas aeruginosa [31] = test: Potentiation of aztreonam-induced antibacterial activity against wild type Pseudomonas aeruginosa PAO1 assessed as fold reduction in aztreonam MIC at 8 uM
Pseudomonas aeruginosa [32] = test: Potentiation of ceftazidime-induced antibacterial activity against wild type Pseudomonas aeruginosa PAO1 assessed as fold reduction in ceftazidime MIC at 8 uM

Compound | fold change (FC) (Pseudomonas aeruginosa [1]) | fold change (FC) (Pseudomonas aeruginosa [2]) | fold change (FC) (Pseudomonas aeruginosa [3]) | fold change (FC) (Pseudomonas aeruginosa [4]) | fold change (FC) (Pseudomonas aeruginosa [5]) | fold change (FC) (Pseudomonas aeruginosa [6]) | MIC (Pseudomonas aeruginosa [7]) [µg/mL] | MIC (Pseudomonas aeruginosa [8]) [µg/mL] | MIC (Pseudomonas aeruginosa [9]) [µg/mL] | MIC (Pseudomonas aeruginosa [10]) [µg/mL] | MIC (Pseudomonas aeruginosa [11]) [µg/mL] | MIC (Pseudomonas aeruginosa [12]) [µg/mL] | MIC (Pseudomonas aeruginosa [13]) [µg/mL] | MIC (Pseudomonas aeruginosa [14]) [µg/mL] | MIC (Pseudomonas aeruginosa [15]) [µg/mL] | MIC (Pseudomonas aeruginosa [16]) [µg/mL] | MIC (Pseudomonas aeruginosa [17]) [µg/mL] | MIC (Pseudomonas aeruginosa [18]) [µg/mL] | MIC (Pseudomonas aeruginosa [19]) [µg/mL] | MIC (Pseudomonas aeruginosa [20]) [µg/mL] | other results
N=C(N)NC[C@H]1O[C@H](O[C@H]2[C@H](OCCCCCCCCCCCCN3CCN(c4cc5c(cc4F)c(=O)c(C(=O)O)cn5C4CC4)CC3)[C@@H](O[C@H]3O[C@H](CO)[C@@H](O)[C@H](NC(=N)N)[C@H]3O)[C@H](NC(=N)N)C[C@@H]2NC(=N)N)[C@H](NC(=N)N)C[C@@H]1O.O=C(O)C(F)(F)F.O=C(O)C(F)(F)F.O=C(O)C(F)(F)F.O=C(O)C(F)(F)F.O=C(O)C(F)(F)F.O=C(O)C(F)(F)F | 16 | 16 | 16 | 16 | 16 | 16 | 2 | 4 | 2 | 16 | 64 | 0.25 | 0.25 | 2 | 32 | 32 | 32 | 2 | 6 | 16 | MIC (Pseudomonas aeruginosa [21]): 0.25 µg/mL; MIC (Pseudomonas aeruginosa [22]): 32 µg/mL; MIC (Pseudomonas aeruginosa [23]): 32 µg/mL; MIC (Pseudomonas aeruginosa [24]): 4 µg/mL; MIC (Pseudomonas aeruginosa [25]): 16 µg/mL; MIC (Pseudomonas aeruginosa [26]): 16 µg/mL; MIC (Pseudomonas aeruginosa [27]): 32 µg/mL; MIC (Pseudomonas aeruginosa [28]): 8 µg/mL; MIC (Pseudomonas aeruginosa [29]): 0.5 µg/mL; MIC (Pseudomonas aeruginosa [30]): 512 µg/mL; fold change (FC) (Pseudomonas aeruginosa [31]): 2; fold change (FC) (Pseudomonas aeruginosa [32]): 2
NC[C@H]1O[C@H](O[C@H]2[C@H](OCCCCc3cn(CCCCO[C@@H]4[C@@H](O)[C@H](N)C[C@H](N)[C@H]4O[C@H]4O[C@H](CN)[C@@H](O)C[C@H]4N)nn3)[C@@H](O)[C@H](N)C[C@@H]2N)[C@H](N)C[C@@H]1O.O=C(O)C(F)(F)F.O=C(O)C(F)(F)F.O=C(O)C(F)(F)F.O=C(O)C(F)(F)F.O=C(O)C(F)(F)F.O=C(O)C(F)(F)F.O=C(O)C(F)(F)F.O=C(O)C(F)(F)F | 16 | 16 | 16 | 16 | 16 | 16 | 1 | 8 | 4 | 16 | 64 | 0.13 | 0.25 | 32 | 128 | 64 | 64 | 1 | 4 | 16 | MIC (Pseudomonas aeruginosa [21]): 0.5 µg/mL; MIC (Pseudomonas aeruginosa [22]): 32 µg/mL; MIC (Pseudomonas aeruginosa [23]): 16 µg/mL; MIC (Pseudomonas aeruginosa [24]): 8 µg/mL; MIC (Pseudomonas aeruginosa [25]): 4 µg/mL; MIC (Pseudomonas aeruginosa [26]): 2 µg/mL; MIC (Pseudomonas aeruginosa [27]): 16 µg/mL; MIC (Pseudomonas aeruginosa [28]): 16 µg/mL; MIC (Pseudomonas aeruginosa [29]): 1 µg/mL; MIC (Pseudomonas aeruginosa [30]): 128 µg/mL; fold change (FC) (Pseudomonas aeruginosa [31]): 2; fold change (FC) (Pseudomonas aeruginosa [32]): 2
